# In patent EP2970215B1, “PYRROLIDINE DERIVATIVES, PHARMACEUTICAL COMPOSITIONS CONTAINING THEM, AND THEIR USE IN THERAPY” (AbbVie Deutschland GmbH & Co. KG, priority 2013, dated 2014):
# Target: T1, human GlyT1c transporter (Homo sapiens, UniProt P48067)
# T1 construct: expressed in transfected cells; host or cells: CHO cells (recombinant; line hGlyT1c_5_CHO is named for the uptake assay)
# T1 sequence (P48067 1-706): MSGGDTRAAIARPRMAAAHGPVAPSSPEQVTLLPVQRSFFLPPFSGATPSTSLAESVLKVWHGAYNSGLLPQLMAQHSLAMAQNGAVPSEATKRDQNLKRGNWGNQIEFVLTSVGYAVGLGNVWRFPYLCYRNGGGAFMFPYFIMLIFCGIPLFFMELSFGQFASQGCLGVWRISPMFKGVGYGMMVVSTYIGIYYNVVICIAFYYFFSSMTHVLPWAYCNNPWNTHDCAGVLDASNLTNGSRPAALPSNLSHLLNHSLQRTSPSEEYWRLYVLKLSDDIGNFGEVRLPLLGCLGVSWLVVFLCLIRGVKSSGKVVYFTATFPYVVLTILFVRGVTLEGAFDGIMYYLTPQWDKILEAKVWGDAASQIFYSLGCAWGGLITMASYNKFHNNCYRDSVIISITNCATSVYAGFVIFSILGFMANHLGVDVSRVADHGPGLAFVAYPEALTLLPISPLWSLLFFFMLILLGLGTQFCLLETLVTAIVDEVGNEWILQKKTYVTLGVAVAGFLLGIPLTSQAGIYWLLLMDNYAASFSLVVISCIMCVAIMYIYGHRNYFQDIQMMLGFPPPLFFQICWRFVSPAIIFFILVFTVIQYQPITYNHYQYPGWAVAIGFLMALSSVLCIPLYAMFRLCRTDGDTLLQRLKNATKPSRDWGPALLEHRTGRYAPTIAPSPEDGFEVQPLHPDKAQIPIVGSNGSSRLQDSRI
# Experiment: Radioligand binding assay using recombinant CHO cell membranes expressing human GlyT1
# Settings: radioligand binding to human GlyT1c transporter-expressing membranes
# Description: 2. Radioligand binding assays using recombinant CHO cell membranes expressing human GlyT1: […]
row,Compound,Ki [µM]
1,"Cn1cnc(S(=O)(=O)N2C[C@H](Nc3cc(-c4cccc(F)c4)ncn3)[C@@H](c3ccc(F)cc3)C2)c1 [Example 727, 6-(3-fluorophenyl)-N-{(3R,4S)-4-(4-fluorophenyl)-1-[(1-methyl-1H-imidazol-4-yl)sulfonyl]pyrrolidin-3-yl}pyrimidin-4-amine]",≤ 0.01
2,"Cn1cnc(S(=O)(=O)N2C[C@H](Nc3cc(-c4cccc(Cl)c4)ncn3)[C@@H](c3ccc(F)cc3)C2)c1 [Example 729, 6-(3-chlorophenyl)-N-{(3R,4S)-4-(4-fluorophenyl)-1-[(1-methyl-1H-imidazol-4-yl)sulfonyl]pyrrolidin-3-yl}pyrimidin-4-amine]",≤ 0.01
3,"Cn1cnc(S(=O)(=O)N2C[C@H](NCCCCC(F)(F)F)[C@@H](c3ccc(F)cc3)C2)c1 [Example 732, (3R,4S)-4-(4-fluorophenyl)-1-[(1-methyl-1H-imidazol-4-yl)sulfonyl]-N-(5,5,5-trifluoropentyl)pyrrolidin-3-amine]",≤ 0.1
4,"CCCCC(F)(F)CN[C@H]1CN(S(=O)(=O)c2cn(C)cn2)C[C@@H]1c1ccc(F)cc1 [Example 733, (3R,4S)-N-(2,2-difluorohexyl)-4-(4-fluorophenyl)-1-[(1-methyl-1H-imidazol-4-yl)sulfonyl]pyrrolidin-3-amine]",≤ 0.01
5,"CCCC(F)(F)CN[C@H]1CN(S(=O)(=O)c2cn(C)cn2)C[C@@H]1c1ccc(F)cc1 [Example 734, (3R,4S)-N-(2,2-difluoropentyl)-4-(4-fluorophenyl)-1-[(1-methyl-1H-imidazol-4-yl)sulfonyl]pyrrolidin-3-amine]",≤ 0.1
6,"Cn1cnc(S(=O)(=O)N2C[C@H](NC(=O)CCCC(C)(F)F)[C@@H](c3ccc(F)cc3)C2)c1 [Example 735, 5,5-difluoro-N-{(3R,4S)-4-(4-fluorophenyl)-1-[(1-methyl-1H-imidazol-4-yl)sulfonyl]pyrrolidin-3-yl}hexanamide]",≤ 10
7,"Cn1cnc(S(=O)(=O)N2C[C@H](Nc3cc(F)ccn3)[C@@H](c3ccc(F)cc3)C2)c1 [Example 736, 4-fluoro-N-{(3R,4S)-4-(4-fluorophenyl)-1-[(1-methyl-1H-imidazol-4-yl)sulfonyl]pyrrolidin-3-yl}pyridin-2-amine]",≤ 1
8,"Cn1cnc(S(=O)(=O)N2C[C@H](Nc3ccc(F)cn3)[C@@H](c3ccc(F)cc3)C2)c1 [Example 737, 5-fluoro-N-{(3R,4S)-4-(4-fluorophenyl)-1-[(1-methyl-1H-imidazol-4-yl)sulfonyl]pyrrolidin-3-yl}pyridin-2-amine]",≤ 0.1
9,"CC(=O)CCC(=O)N[C@H]1CN(S(=O)(=O)c2cn(C)cn2)C[C@@H]1c1ccc(F)cc1 [Example 738, N-{(3R,4S)-4-(4-fluorophenyl)-1-[(1-methyl-1H-imidazol-4-yl)sulfonyl]pyrrolidin-3-yl}-4-oxopentanamide]",> 10
10,"Cn1cnc(S(=O)(=O)N2C[C@H](NCCCCC(C)(F)F)[C@@H](c3ccc(F)cc3)C2)c1 [Example 739, (3R,4S)-N-(5,5-difluorohexyl)-4-(4-fluorophenyl)-1-[(1-methyl-1H-imidazol-4-yl)sulfonyl]pyrrolidin-3-amine]",≤ 0.1
11,"Cn1cnc(S(=O)(=O)N2C[C@H](OCCNc3ccc(Cl)cc3)[C@@H](c3ccc(F)cc3)C2)c1 [Example 740, 4-chloro-N-[2-({(3R,4S)-4-(4-fluorophenyl)-1-[(1-methyl-1H-imidazol-4-yl)sulfonyl]pyrrolidin-3-yl}oxy)ethyl]aniline]",≤ 10
12,"Cn1cnc(S(=O)(=O)N2C[C@@H](Nc3ccc(F)c(OC(F)(F)F)c3)[C@H](C3CCCCO3)C2)c1 (stereo partly drawn) [Example 741, (3S,4R)-N-[4-fluoro-3-(trifluoromethoxy)phenyl]-1-[(1-methyl-1H-imidazol-4-yl)sulfonyl]-4-(tetrahydro-2H-pyran-2-yl)pyrrolidin-3-amine]",≤ 0.1
13,"Cn1cnc(S(=O)(=O)N2C[C@H](NC(=O)NCc3ccccc3)[C@@H](c3ccc(F)cc3)C2)c1 [Example 742, 1-benzyl-3-{(3R,4S)-4-(4-fluorophenyl)-1-[(1-methyl-1H-imidazol-4-yl)sulfonyl]pyrrolidin-3-yl}urea]",≤ 1
14,"Cc1cc(N[C@H]2CN(S(=O)(=O)c3cn(C)cn3)C[C@@H]2c2ccc(F)cc2)ccc1Cl [Example 743, (3R,4S)-N-(4-chloro-3-methylphenyl)-4-(4-fluorophenyl)-1-[(1-methyl-1H-imidazol-4-yl)sulfonyl]pyrrolidin-3-amine]",≤ 0.1
15,"Cn1cnc(S(=O)(=O)N2C[C@H](Nc3cccc(OCC(F)(F)F)c3)[C@@H](c3ccc(F)cc3)C2)c1 [Example 744, (3R,4S)-4-(4-fluorophenyl)-1-[(1-methyl-1H-imidazol-4-yl)sulfonyl]-N-[3-(2,2,2-trifluoroethoxy)phenyl]pyrrolidin-3-amine]",≤ 0.01
16,"Cn1cnc(S(=O)(=O)N2C[C@H](Nc3ccc(F)c(-c4ccncc4)c3)[C@@H](c3ccc(F)cc3)C2)c1 [Example 746, (3R,4S)-4-(4-fluorophenyl)-N-[4-fluoro-3-(pyridin-4-yl)phenyl]-1-[(1-methyl-1H-imidazol-4-yl)sulfonyl]pyrrolidin-3-amine]",≤ 0.01
17,"Cc1cc(N[C@H]2CN(S(=O)(=O)c3cn(C)cn3)C[C@@H]2c2ccc(F)cc2)ccc1F [Example 747, (3R,4S)-N-(4-fluoro-3-methylphenyl)-4-(4-fluorophenyl)-1-[(1-methyl-1H-imidazol-4-yl)sulfonyl]pyrrolidin-3-amine]",≤ 0.01
18,"Cn1cnc(S(=O)(=O)N2C[C@H](Nc3ccc(F)c(-c4cncnc4)c3)[C@@H](c3ccc(F)cc3)C2)c1 [Example 749, (3R,4S)-4-(4-fluorophenyl)-N-[4-fluoro-3-(pyrimidin-5-yl)phenyl]-1-[(1-methyl-1H-imidazol-4-yl)sulfonyl]pyrrolidin-3-amine]",≤ 0.01
19,"Cn1cnc(S(=O)(=O)N2C[C@H](Nc3cc(-c4cccnc4)ccn3)[C@@H](c3ccc(F)cc3)C2)c1 [Example 750, N-{(3R,4S)-4-(4-fluorophenyl)-1-[(1-methyl-1H-imidazol-4-yl)sulfonyl]pyrrolidin-3-yl}-3,4'-bipyridin-2'-amine]",≤ 0.1
20,"Cn1cnc(S(=O)(=O)N2C[C@H](Nc3cc(-c4ccncc4)ccn3)[C@@H](c3ccc(F)cc3)C2)c1 [Example 751, N-{(3R,4S)-4-(4-fluorophenyl)-1-[(1-methyl-1H-imidazol-4-yl)sulfonyl]pyrrolidin-3-yl}-4,4'-bipyridin-2-amine]",≤ 0.1
21,Cn1cnc(S(=O)(=O)N2C[C@H](Nc3ccc(Cl)c(C(F)(F)F)c3)[C@@H](c3cocn3)C2)c1 [Example 753],≤ 1
22,"Cc1nc(S(=O)(=O)N2C[C@H](Nc3ccc(F)c(F)c3)[C@@H](c3ccc(F)cc3)C2)cn1C [Example 755, (3R,4S)-N-(3,4-difluorophenyl)-1-[(1,2-dimethyl-1H-imidazol-4-yl)sulfonyl]-4-(4-fluorophenyl)pyrrolidin-3-amine]",≥ 10
23,"Cc1nc(S(=O)(=O)N2C[C@H](Nc3ccc(F)c(C(F)(F)F)c3)[C@@H](c3ccc(F)cc3)C2)cn1C [Example 756, (3R,4S)-1-[(1,2-dimethyl-1H-imidazol-4-yl)sulfonyl]-4-(4-fluorophenyl)-N-[4-fluoro-3-(trifluoromethyl)phenyl]pyrrolidin-3-amine]",≤ 10
24,"Cc1ncc(S(=O)(=O)N2C[C@H](Nc3ccc(F)c(C(F)(F)F)c3)[C@@H](c3ccc(F)cc3)C2)n1C [Example 758, (3R,4S)-1-[(1,2-dimethyl-1H-imidazol-5-yl)sulfonyl]-4-(4-fluorophenyl)-N-[4-fluoro-3-(trifluoromethyl)phenyl]pyrrolidin-3-amine]",≤ 10
25,"Cc1nc(S(=O)(=O)N2C[C@H](Nc3cc(C(F)(F)F)c(Cl)cn3)[C@@H](c3ccc(F)cc3)C2)cn1C [Example 760, 5-chloro-N-[(3R,4S)-1-[(1,2-dimethyl-1H-imidazol-4-yl)sulfonyl]-4-(4-fluorophenyl)pyrrolidin-3-yl]-4-(trifluoromethyl)pyridin-2-amine]",> 10
26,"Cn1cnc(S(=O)(=O)N2C[C@H](Nc3cccc(OCc4ccccc4)c3)[C@@H](c3ccccc3)C2)c1 [Example 773, (3R,4S)-N-[3-(benzyloxy)phenyl]-1-[(1-methyl-1H-imidazol-4-yl)sulfonyl]-4-phenylpyrrolidin-3-amine]",≤ 0.1
27,"Cn1cnc(S(=O)(=O)N2C[C@H](Nc3cc(OCc4ccccc4)ncn3)[C@@H](c3ccc(F)cc3)C2)c1 [Example 774, 6-(benzyloxy)-N-{(3R,4S)-4-(4-fluorophenyl)-1-[(1-methyl-1H-imidazol-4-yl)sulfonyl]pyrrolidin-3-yl}pyrimidin-4-amine]",≤ 0.1
28,"Cn1cnc(S(=O)(=O)N2C[C@H](Nc3cc(OCc4ccccc4)c(F)cn3)[C@@H](c3ccccc3)C2)c1 [Example 776, 4-(benzyloxy)-5-fluoro-N-{(3R,4S)-1-[(1-methyl-1H-imidazol-4-yl)sulfonyl]-4-phenylpyrrolidin-3-yl}pyridin-2-amine]",≤ 0.01
